Measurements as given in ChEMBL document CHEMBL1201862, “PubChem BioAssay data set” (2004).
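Growth conditions: 96-well plates. Treatment: test compound, 48 hours, 5 concentrations. Analysis: linear interpolation between bracketing concentrations; unreached endpoints set to highest concentration. GI50 marks 50% less growth.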 Calls of active or inactive are those of the source. Rule as the data show it: active = GI50 up to about 1.1 µM and inactive = higher.

Columns and labels:
Experiment in all cases: DTP human tumour cell line panel, 48 h
786-0 = system: 786-0
A549 = system: A549
DU-145 = system: DU-145
HCC 2998 = system: HCC 2998
HCT-116 = system: HCT-116
HL-60 = system: HL-60
M14 = system: M14
MOLT-4 = system: MOLT-4
NCI-H460 = system: NCI-H460
OVCAR-3 = system: OVCAR-3
PC-3 = system: PC-3
RPMI-8226 = system: RPMI-8226
SF-295 = system: SF-295
SK-OV-3 = system: SK-OV-3
UO-31 = system: UO-31
CAKI-1 = system: CAKI-1
EKVX = system: EKVX
HOP-92 = system: HOP-92

Measured: GI50

Cc1nc(-c2ccc(/N=C/c3ccc(N(CCOS(C)(=O)=O)CCOS(C)(=O)=O)cc3C)cc2)cs1
inactive: 786-0 13.8 µM | A549 11.3 µM | DU-145 11.5 µM | HCC 2998 30 µM | HCT-116 34.8 µM | HL-60 3.94 µM | M14 60 µM | MOLT-4 2.09 µM | NCI-H460 9.46 µM | OVCAR-3 30.8 µM | PC-3 20.9 µM | RPMI-8226 17.8 µM | SF-295 37.7 µM | SK-OV-3 26.5 µM | UO-31 18.7 µM

CCCCn1c(CSc2ccc(Cl)cc2)c(C(=O)OCC)c2cc(OC)c(Br)cc21
inactive: 786-0 > 100 µM | A549 > 100 µM | CAKI-1 31.5 µM | DU-145 > 100 µM | EKVX > 100 µM | HCC 2998 > 100 µM | HCT-116 > 100 µM | HL-60 > 100 µM | M14 > 100 µM | MOLT-4 > 100 µM | NCI-H460 > 100 µM | OVCAR-3 > 100 µM | PC-3 > 100 µM | RPMI-8226 > 100 µM | SF-295 > 100 µM | SK-OV-3 > 100 µM | UO-31 > 100 µM

O=C1/C(=C/c2ccc(Br)s2)NC(=S)N1CN1CCOCC1
inactive: 786-0 43 µM | CAKI-1 25.2 µM | DU-145 53.2 µM | EKVX 8.38 µM | HCC 2998 > 100 µM | HCT-116 31.8 µM | HL-60 23.9 µM | MOLT-4 32.7 µM | NCI-H460 49.8 µM | OVCAR-3 59.3 µM | PC-3 78.9 µM | RPMI-8226 16.7 µM | SF-295 95.5 µM | UO-31 37.5 µM

CC(C)(C)/C(O)=C\c1nc2ccc(C(F)(F)F)cc2[nH]c1=O
inactive: 786-0 > 100 µM | A549 > 100 µM | CAKI-1 > 100 µM | DU-145 > 100 µM | EKVX > 100 µM | HCT-116 > 100 µM | HOP-92 > 100 µM | M14 > 100 µM | MOLT-4 > 100 µM | OVCAR-3 > 100 µM | PC-3 > 100 µM | RPMI-8226 > 100 µM | SF-295 > 100 µM | SK-OV-3 > 100 µM | UO-31 > 100 µM

CCC/C(Cl)=N\OC(=O)Nc1cccc(C(F)(F)F)c1
inactive: 786-0 16 µM | A549 19.7 µM | CAKI-1 18.1 µM | DU-145 13.2 µM | EKVX 16.6 µM | HCC 2998 18.2 µM | HCT-116 18.2 µM | HL-60 1.88 µM | M14 17.7 µM | MOLT-4 2.94 µM | NCI-H460 19.4 µM | OVCAR-3 22.4 µM | PC-3 17.6 µM | RPMI-8226 4.61 µM | SF-295 13.5 µM | SK-OV-3 13.6 µM | UO-31 19.6 µM

S=C(S)NCC1CCC(CNC(=S)S)CC1 (stereo unspecified)
inactive: 786-0 4.63 µM | A549 > 100 µM | CAKI-1 16.9 µM | DU-145 26 µM | EKVX 62.1 µM | HCC 2998 20.4 µM | HCT-116 19.7 µM | HL-60 48.9 µM | M14 82.8 µM | MOLT-4 29.2 µM | NCI-H460 70.5 µM | OVCAR-3 16.5 µM | PC-3 17.8 µM | RPMI-8226 9.18 µM | SF-295 > 100 µM | SK-OV-3 > 100 µM | UO-31 30.9 µM

O=C(O)C1C(C(=O)O)C(C(=O)O)C1C(=O)O (stereo unspecified)
inactive: 786-0 > 100 µM | A549 > 100 µM | CAKI-1 > 100 µM | DU-145 > 100 µM | EKVX > 100 µM | HCT-116 > 100 µM | HOP-92 > 100 µM | M14 > 100 µM | MOLT-4 > 100 µM | NCI-H460 > 100 µM | OVCAR-3 > 100 µM | PC-3 > 100 µM | RPMI-8226 > 100 µM | SF-295 > 100 µM | SK-OV-3 > 100 µM | UO-31 > 100 µM
